Results: ChEMBL document CHEMBL4616654, “Irpexine, an Isoindolinone Alkaloid Produced by Coculture of Endophytic Fungi, Irpex lacteus and Phaeosphaeria oryzae” (J Nat Prod, 2020)
Active and inactive are the calls of the source.

Experiments:
Candida albicans = assay: Antifungal activity against Candida albicans at 50 uM; type: functional, organism-based
Escherichia coli = assay: Antimicrobial activity against Escherichia coli at 50 uM; type: functional, organism-based
Bacillus cereus = assay: Antimicrobial activity against Bacillus cereus at 50 uM; type: functional, organism-based
HeLa = assay: Cytotoxicity against human HeLa cells at 50 uM; type: functional, cell-based

Measured: Activity

CC(C)=CCc1ccc(O)c(C2c3c(O)cc(C(=O)O)cc3C(=O)N2CCO)c1O (stereo not drawn)
inactive: all assays above

O=c1c2cc3c(CO)cc4cc(O)cc(O)c4c3oc-2cc2cc(O)cc(O)c12
inactive: all assays above
